Test results reported in patent publication US12037583B2, “Compositions and methods for immunooncology” (Novartis AG, priority 2015, dated 2024).

Experiments:
PDCD1 = assay: NGS editing of PDCD1 by dgRNA in HEK cells stably expressing Cas9; format: cell-based, human; settings: at least 3 experiments;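 also: dgRNA lipofected into Cas9-expressing HEK cells, lysed after 24 h, target amplicon sequenced, editing = reads carrying insertions or deletions as percent of all reads including wild type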
Description: Transfection of Cas9GFP-expressing HEK293 cells (HEK-293_Cas9GFP) was used for primary screening of target specific crRNAs. […] Selected crRNAs were chemically synthesized and delivered in a 96 well format. HEK-293-Cas9GFP cells were transfected with target crRNAs comprising a flagpole region of SEQ ID NO: 6607 in a 1:1 ratio with stock trRNA of SEQ ID NO: 6660. The transfection was mediated using lipofection technology according to manufacturer's protocol (DharmaFECT Duo, GE LifeSciences; or RNAiMax, LifeTechnologies). Transfected cells were lysed 24 h following lipofection and editing (e.g., cleavage) was detected within lysates with the T7E1 assay and/or next generation sequencing (NGS; below).
PCR primers were first designed around the target site, and the genomic area of interest PCR amplified. Additional PCR was performed according to manufacturer's protocols (Illumina) to add the necessary chemistry for sequencing. The amplicons were then sequenced on an Illumina MiSeq instrument. The reads were then aligned to the human reference genome (e.g., hg38) after eliminating those having low quality scores. From the resulting files containing the reads mapped to the reference genome (BAM files), reads which overlap the target region of interest were selected and the number of wild type reads versus the number of reads which contain an insertion or deletion was calculated. The editing percentage was then defined as the total number of reads with insertions or deletions over the total number of reads, including wild type. To determine the pattern of insertions and/or deletions that resulted from the edit, the aligned reads with indels were selected and the number of a reads with a given indel were summed.
Editing of CRISPR systems containing dgRNA molecules comprising targeting domains to sequences of PDCD1 were tested for editing in HEK (gRNA delivered to cells stably expressing Cas9) and CD3+ T cells (gRNA and Cas9 delivered as RNP) according to the methods described herein.
All mean editing % are as measured by NGS and are based on at least 3 experiments.

[1] = tested on: potential off-target genomic sites; assay: Off-target editing assessment by oligo insertion assay in Cas9-expressing HEK293 cells; format: cell-based, human; settings: dual guide RNA, FIG. 63, 64
Description: A total of 34 guideRNAs (dual guide RNAs comprising the indicated targeting domain, modified or unmodified, as indicated) targeting B2M (5), TRAC (9), TRBC2 (2), PDCD1 (8), FKBP1A (5), or CIITA (5) were screened in the Cas9-expressing HEK293 cells described above in Example 1, and the results are plotted in FIG. 63 and FIG. 64.

FKBP1A = assay: S6 phosphorylation by flow cytometry with or without RAD001 after FKBP1A editing; format: cell-based, human; settings: primary T cells; 2.5 nM RAD001 3 hours; FIG. 54
Description: After thawing, isolated human T cells were activated with CD3/CD28 beads for 3 days at a bead to cell ratio of 3:1. Cells were then electroporated with RNP containing dual guide RNA molecules (as indicated, as described above in these examples), and Cas9 protein using the Neon instrument with the 100 ul tip kit. RNPs were prepared in the following manner. crRNA and trRNA (10 ul of each at 100 uM) were heated in separate tubes to 95 degrees C. for two minutes and then cooled for 5 minutes at room temperature. […]
After electroporation, cells were then transferred into a 6-well plate with 2 ml of T cell media with beads at a 3:1 bead to cell ratio. […] The phosphorylation of S6 was detected by flow cytometry, and was used as an indication of immunosuppressing by RAD001. […] Cells were then washed twice with PBS and analyzed by flow cytometry on the Becton Dickenson LSR Fortessa using FloJo-V10 software.
After electroporation cells were treated with 2.5 nM RAD001 (upper panel) or left untreated (lower panel) and the impact on mTOR pathway inhibition was evaluated by analyzing S6 phosphorylation (pS6) by flow cytometry. […] Positive staining for pS6 (shown in the gating trace) was determined by gating above the fluorescence level seen in a control stained with isotype antibody (not shown). Quantitation of S6 phosphorylation from the flow cytometry data is shown in the graph in the lower panel. […]

CD3 delta and CD3 gamma = assay: Loss of surface CD3 by flow cytometry in primary human CD3+ T cells after CD3 delta / CD3 gamma RNP; format: cell-based; settings: day 7 post-electroporation; anti-CD3 OKT3
Description: Editing of CRISPR systems containing dgRNA molecules comprising targeting domains to sequences of CD3 delta and CD3 gamma were tested for editing in primary CD3+ T cells (gRNA/Cas9 RNP delivered by electroporation) according to the methods described herein. Surface expression of CD3 after editing was assayed by flow cytometry. Briefly, edited CD3+ cells were stained with antibodies against CD3 (OKT3, BioLegend) at day 7 post-electroporation. Expression of CD3 in live cells (identified using 7AAD exclusion) relative to the un-edited controls was used to determine frequency of RNP editing. The results are reported in FIG. 65 and FIG. 66, which include flow cytometry data showing the % editing in primary human CD3+ T cells as measured by loss of surface expression of CD3.

## CR000902: dgRNA targeting domain to PDCD1 (guide GCCCACGACACCAACCACCA; targeting domain within dual guide RNA, chemistry not given here, further chemistry not given here; listed as Homo sapiens)
PDCD1
  HEK (NGS) % Editing Mean: 72%
[1]
  off-target editing in oligo insertion assay, in words: no off-target editing was detected

## CR002122: dgRNA targeting domain to FKBP1A (guide GUUCUUUUCACAGAUGAGUG; targeting domain within dual guide RNA, chemistry not given here, further chemistry not given here; listed as Homo sapiens)
FKBP1A
  S6 phosphorylation under RAD001, in words: refractory to the inhibitory effects of the rapalog RAD001

## CR005334: dgRNA targeting domain to CD3 delta or CD3 gamma (guide ACUUCGAUAAUGAACUUGCA; chemistry not given here; listed as Homo sapiens)
CD3 delta and CD3 gamma
  % loss of CD3: 98%
